Laboratory results: patent publication US20110287026A1, “SIRT4 AND USES THEREOF” (President and Fellows of Harvard College, priority 2008, published 2011)

Assays:
Assay type in all cases: cell-based, mouse
[1] = system: fatty acid oxidation in primary hepatocytes; test: Oxidation of [3H]palmitate in primary hepatocytes
Procedure: Primary hepatocytes were isolated using a two-step perfusion protocol, based on previous methods (Lin et al., (2004) Cell 119, 121-135.). Briefly, livers were perfused first with Hanks balanced salt solution (HBSS, pH 7.4), containing glucose (1.0 g/l), EDTA (0.2 g/l), HCO3 (2.1 g/l) and KCl (0.4 g/l) for 5 minutes. Next, livers were perfused for 15 min with a collagenase buffer (pH 7.4, Invitrogen). After perfusion, livers were dissected, minced, filtered, and hepatocytes purified using Percoll (Sigma) and plated (500,000 cells per well) on collagen coated 6 well plates (BD Biosciences) in DMEM (4.5 g/l glucose) containing 10% FBS, 2 mM pyruvate, 2% Pen/strep, […] and 100 nM insulin. Typical primary hepatocyte isolations yielded 12-14×10^6 cells per liver with 96%-98% cell viability (assessed by Trypan blue exclusion assay). Two hours after plating, medium was replaced with maintenance medium (DMEM with 0.2% BSA, 2 mM pyruvate, 2% Pen/strep, 0.1 mM dexamethasone and 1 nM insulin). Fatty acid oxidation assays were performed one day after isolation.
Cells were incubated overnight in culture medium containing 100 μM palmitate (C16:0) and 1 mM carnitine. In the final 2 hours of incubation, cells were pulsed with 1.7 μCi [9,10(n)-^3H]palmitic acid (GE Healthcare), and the medium was collected to analyze the released ^3H2O, formed during cellular oxidation of [^3H]palmitate. In brief, medium was TCA precipitated, supernatants were neutralized with NaOH and loaded onto ion exchange columns packed with DOWEX 1×2-400 resin (Sigma). The radioactive product was eluted with water and quantitated by liquid scintillation counting. Oxidation of [^3H]palmitate was normalized to protein content using Bio-Rad DC protein assay.
Ultimately, the up-regulation of lipid catabolism gene expression during nutrient deprivation leads to enhanced rates of fatty acid oxidation. […] To test this model, the rates of oxidation of palmitate, a saturated long chain fatty acid, were analyzed in primary MEFs and primary hepatocytes isolated from SIRT4 WT and KO mice. […]

[2] = system: mitochondrial fatty acid oxidation in primary MEFs; test: Oxidation of [3H]palmitate in primary MEFs; settings: SIRT4 KO and WT MEFs (both cell types)
Procedure: Mouse embryonic fibroblasts (MEFs) were isolated on embryonic day 12.5-14.5 from heterozygous females that were mated with heterozygous males. Primary MEFs were cultured in DMEM containing 10% FBS and 0.1 mM BME and were used between passages 2 and 5. Cells were incubated overnight in culture medium containing 100 μM palmitate (C16:0) and 1 mM carnitine. In the final 2 hours of incubation, cells were pulsed with 1.7 μCi [9,10(n)-^3H]palmitic acid (GE Healthcare), and the medium was collected to analyze the released ^3H2O, formed during cellular oxidation of [^3H]palmitate. In brief, medium was TCA precipitated, supernatants were neutralized with NaOH and loaded onto ion exchange columns packed with DOWEX 1×2-400 resin (Sigma). The radioactive product was eluted with water and quantitated by liquid scintillation counting. Oxidation of [^3H]palmitate was normalized to protein content using Bio-Rad DC protein assay. […] To test this model, the rates of oxidation of palmitate, a saturated long chain fatty acid, were analyzed in primary MEFs and primary hepatocytes isolated from SIRT4 WT and KO mice. The CPT1a inhibitor, etomoxir, (Baht and Saggerson, 1989) was used to specifically block mitochondrial import of fatty acids.

PPARα target gene Pdk4 = test: Induction of PPARα target gene Pdk4 in MEFs exposed to WY14643 (quantitative RT-PCR); settings: 50 μM WY14643
Procedure: Mouse embryonic fibroblasts (MEFs) were isolated on embryonic day 12.5-14.5 from heterozygous females that were mated with heterozygous males. Primary MEFs were cultured in DMEM containing 10% FBS and 0.1 mM BME and were used between passages 2 and 5.
RNA was isolated from frozen liver tissue of overnight fasted mice or from cells using Trizol (Invitrogen) according to the manufacturer's instructions and further purified using RNeasy columns (Qiagen). Amplification and detection of target and reference cDNA samples was performed on a Lightcycler 480 (Roche) using Lightcycler 480 Sybr Green I Mastermix (Roche). A standard curve was generated for all genes using serial dilutions of a pool prepared from all cDNA samples. mRNA levels of target genes were normalized using beta 2 microglobulin (B2m), peptidyl-prolyl isomerase (Ppia) and ribosomal protein 16 (Rps16) as reference genes.
To determine whether SIRT4 is a bona fide repressor of PPARα in a cell-autonomous manner, the induction of the PPARα target gene Pdk4 was examined in SIRT4^−/− and SIRT4′^+/+ mouse embryonic fibroblast (MEF) cell lines exposed to the PPARα agonist WY14643 (WY), as described above.

SMILES: NC(=O)C1CCCc2c1[nH]c1ccc(Cl)cc21 (stereo not drawn) [Ex 527]
- level of Fatty Acid Oxidation ([1]; SIRT4 KO hepatocytes): significantly reduced
- rate of Fatty Acid Oxidation ([1]; WT hepatocytes): did not significantly alter

SMILES: CCOC(=O)[C@@]1(CCCCCCOc2ccc(Cl)cc2)CO1 [etomoxir]
- fatty acid oxidation ([3H]palmitate) [2]: inhibited fatty acid oxidation strongly
- mitochondrial fatty acid oxidation ([3H]palmitate) ([1]; both WT and SIRT4 KO hepatocytes): effectively blocked mitochondrial fatty acid oxidation

SMILES: Cc1cccc(Nc2cc(Cl)nc(SCC(=O)O)n2)c1C [WY14643]
- stimulation of Pdk4 expression compared with WT cells (PPARα target gene Pdk4; MEFs lacking SIRT4): more than doubled
- increase in Pdk4 expression (PPARα target gene Pdk4; wild-type MEFs): 2 fold
